This assay concerns the target 11β-HSD1 (Homo sapiens, UniProt P28845). Description: biochemical. To be noted: for IC50: IC50 Range, Biological Test Example 1, microsomes from CHO cells overexpressing human 11β-HSD1; for inhibition at 0.1 µM: read-out: Average % inhibition at 100 nM, Biological Test Example 1; for inhibition at 0.1111 µM: read-out: Average % inhibition at 111.1 nM, Biological Test Example 1, 111.1 nM compound.

Like-named read-outs stand apart in the source and are kept apart here.

Chain of 11β-HSD1 (P28845 whole entry): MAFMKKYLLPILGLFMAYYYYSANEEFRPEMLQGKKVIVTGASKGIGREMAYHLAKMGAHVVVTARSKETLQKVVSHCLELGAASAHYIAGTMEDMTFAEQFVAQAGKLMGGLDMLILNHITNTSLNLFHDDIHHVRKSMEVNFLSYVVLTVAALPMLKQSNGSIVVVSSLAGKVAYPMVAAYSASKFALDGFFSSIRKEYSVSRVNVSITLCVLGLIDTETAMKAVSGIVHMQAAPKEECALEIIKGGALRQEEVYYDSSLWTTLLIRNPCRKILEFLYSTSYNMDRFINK

`COC(=O)c1ccc([C@H](C)N2CC[C@](CCCO)(c3ccc(F)cc3)OC2=O)cc1` [EXAMPLE 127, Methyl 4-((S)-1-((R)-6-(4-fluorophenyl)-6-(3-hydroxypropyl)-2-oxo-1,3-oxazinan-3-yl)ethyl)benzoate] came in with an IC50 of less than 100 nM. The inhibition at 0.1 µM (100 nM compound) stood at 86.3%.
Turning to `C[C@@H](c1ccc(C(F)(F)F)cc1)N1CC[C@](CCCNS(C)(=O)=O)(c2ccc(F)cc2)OC1=O` [EXAMPLE 389, N-(3-((R)-6-(4-fluorophenyl)-2-oxo-3-((S)-1-(4-(trifluoromethyl)phenyl)ethyl)-1,3-oxazinan-6-yl)propyl)methanesulfonamide], the IC50 was less than 100 nM. The inhibition at 0.1 µM (100 nM) stood at 96.4%.
Consider `CC1(c2ccccc2)CCN(c2cccc(-c3c(Cl)cccc3Cl)c2)C(=O)O1` (stereo not drawn) [EXAMPLE 22, 3-(2′,6′-dichlorobiphenyl-3-yl)-6-methyl-6-phenyl-1,3-oxazinan-2-one], for which the IC50 is less than 100 nM and the inhibition at 0.1111 µM was found to be 88.9%.
Regarding `C[C@@H](c1ccc(C(F)(F)F)cc1)N1CC[C@](CC(C)(C)O)(c2ccc(F)cc2)OC1=O` [EXAMPLE 390, (S)-6-(4-fluorophenyl)-6-(2-hydroxy-2-methylpropyl)-3-((S)-1-(4-(trifluoromethyl)phenyl)ethyl)-1,3-oxazinan-2-one], the IC50 was less than 100 nM. The inhibition at 0.1 µM (100 nM) worked out at 96.3%.
The molecule `C[C@@H](c1cccc(Br)c1)N1CC[C@](CCC(N)=O)(c2ccc(F)cc2)OC1=O` [EXAMPLE 358, 3-((R)-3-((S)-1-(3-bromophenyl)ethyl)-6-(4-fluorophenyl)-2-oxo-1,3-oxazinan-6-yl)propanamide] registered an IC50 of less than 100 nM. Besides, the inhibition at 0.1 µM (100 nM) stood at 84%.
In turn, `C[C@@H](c1ccc(N2CCCCS2(=O)=O)cc1)N1CC[C@](CCO)(c2ccc(F)cc2)OC1=O` [EXAMPLE 259, (S)-6-(4-fluorophenyl)-6-(2-hydroxyethyl)-3-((S)-1-(4-(1,1-dioxo-hexahydro-1,2-thiazin-2-yl)phenyl)ethyl)-1,3-oxazinan-2-one] returned a concentration for half-maximal inhibition (IC50) of less than 100 nM. Moreover, where the note is “100 nM compound”, the inhibition at 0.1 µM worked out at 43.1%.
`COc1ccc([C@H](C)N2CC[C@@](C)(c3ccc(CO)cc3)OC2=O)cc1` (single isomer, unassigned) [EXAMPLE 429 Isomer 2] showed an IC50 of more than 100 nM. The inhibition at 0.1 µM (100 nM) was 23%.
`C[C@@H](c1ccc(OC(F)F)cc1)N1CC[C@](CCO)(c2ccccc2)OC1=O` [EXAMPLE 327, (S)-3-((S)-1-(4-(difluoromethoxy)phenyl)ethyl)-6-(2-hydroxyethyl)-6-phenyl-1,3-oxazinan-2-one] yielded a half-inhibitory concentration (IC50) of less than 100 nM. The inhibition at 0.1 µM (100 nM) stood at 97.2%.
On to `C[C@@H](c1ccc(-c2ccc(F)cc2F)cc1)N1CC[C@](CCCOC(N)=O)(c2ccc(F)cc2)OC1=O` [EXAMPLE 272, 3-((R)-3-((S)-1-(2′,4′-difluorobiphenyl-4-yl)ethyl)-6-(4-fluorophenyl)-2-oxo-1,3-oxazinan-6-yl)propyl carbamate], for which the IC50 was less than 100 nM. Further, the inhibition at 0.1 µM (100 nM compound) worked out at 93.8%.
`CC1(c2ccccc2)CCN(c2cccc(-c3cccc(S(C)(=O)=O)c3)c2)C(=O)O1` (stereo not drawn) [EXAMPLE 40, 6-methyl-3-(3′-(methylsulfonyl)biphenyl-3-yl)-6-phenyl-1,3-oxazinan-2-one]: the IC50 lay within 100 to 1000 nM and the inhibition at 0.1111 µM came out at 28.8%.
Turning to `C[C@@H](c1ccc(Br)cc1)N1CC[C@](CC(O)CO)(c2ccc(F)cc2)OC1=O` (single isomer, unassigned) [EXAMPLE 144 Isomer 1], the concentration for half-maximal inhibition (IC50) is less than 100 nM and the inhibition at 0.1111 µM turned out to be 90.6%.
On to `COc1cccc(-c2cccc(N3CCC(C)(c4ccccc4)OC3=O)c2)c1` (stereo not drawn) [EXAMPLE 34, 3-(3′-methoxybiphenyl-3-yl)-6-methyl-6-phenyl-1,3-oxazinan-2-one], for which the IC50 is less than 100 nM and the inhibition at 0.1111 µM is 72%.

The record behind these values is patent publication US8575156B2, “Cyclic inhibitors of 11β-hydroxysteroid dehydrogenase 1” (Vitae Pharmaceuticals, Inc., priority 2007, dated 2013).
